From US8188063B2, “Use of adenosine A2A modulators to treat spinal cord injury” (University of Virginia Patent Foundation, priority 2006, dated 2012)
Entries after “also recorded” stand apart in the source; their conditions may differ. Each block holds one compound with its values, some of them ahead of it.

Tests used:
[1] = biological target: T1, recombinant mouse A3 receptors (Mus musculus, UniProt Q61618); experiment: Radioligand competition binding to recombinant mouse A3 receptor (HEK293 membranes); details: high affinity conformational state, means ± SEM, at least six experiments, read-out: Binding affinity (Ki) A3R
T1 construct: expressed in transfected cells
T1 sequence (Q61618 1-319): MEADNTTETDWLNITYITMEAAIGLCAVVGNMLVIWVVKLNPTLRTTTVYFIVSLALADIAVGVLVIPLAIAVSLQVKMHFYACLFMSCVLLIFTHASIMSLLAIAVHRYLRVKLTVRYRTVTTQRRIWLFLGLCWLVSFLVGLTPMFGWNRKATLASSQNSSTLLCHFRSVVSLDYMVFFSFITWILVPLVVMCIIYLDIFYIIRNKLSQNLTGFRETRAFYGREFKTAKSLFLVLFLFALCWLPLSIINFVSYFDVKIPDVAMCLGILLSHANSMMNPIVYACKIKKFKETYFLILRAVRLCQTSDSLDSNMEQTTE
Method: Membranes from HEK293 cells stably expressing recombinant mouse A2ARs or A3Rs were used for competition binding assays with [^125I]N6-4-amino-3-iodobenzyladenosine for the A3AR or [^125I]2-[2-(4-amino-3-iodophenyl)ethylamino]adenosine for the A2AR as described previously (Lappas et al., 2005a). Radioligand binding experiments were performed with 25 μg of HEK293 cell membrane protein in a total volume of 0,1 ml of 10 MM HEPES with 1 mM EDTA (pH 7.4) supplemented with 2 Unit/ml adenosine deaminase and 5 mM MgCl2. Nonspecific binding was measured in the presence of 100 μM NECA. The incubation time was 120 min at room temperature. Membranes were filtered on Millipore MultiScreen 96-well filtration plates and washed three times with ice-cold buffer (10 mM Tris, 1 mM MgCl2, pH 7,4) using a Brandel 96-well plate washer. The data were fit to a four-parameter logistic equation. IC50 values were determined using GraphPad Prism, and Ki values calculated (Linden, 1982).
. It is important to note that unlike human receptors, in the mouse, the selectivity of all of these agonist compounds for the A2A over the A3 receptor is limited, and the administration of these compounds to mice is expected to produce some degree of A3 receptor activation. […]. Activation of the A3 receptor may exacerbate inflammation by enhancing the degranulation of rodent mast cells (Jin et al., 1997; Ramkumar et al., 1993, Reeves et al., 1997); although tissue protection by A3 receptor activation also has been noted (Rivo et al., 2004). […]

[2] = biological target: T2, recombinant mouse A2A receptors (Mus musculus, UniProt Q60613); experiment: Radioligand competition binding to recombinant mouse A2A receptor (HEK293 membranes); details: for Ki: high affinity conformational state, recombinant mouse A2A receptor, means ± SEM, at least six experiments, read-out: Binding affinity (Ki) A2AR; for A3/A2A: ratio of Ki at mouse A3R to Ki at mouse A2AR
T2 construct: expressed in transfected cells
Method: Nonspecific binding was measured in the presence of 100 μM NECA. The incubation time was 120 min at room temperature. Membranes were filtered on Millipore MultiScreen 96-well filtration plates and washed three times with ice-cold buffer (10 mM Tris, 1 mM MgCl2, pH 7,4) using a Brandel 96-well plate washer. The data were fit to a four-parameter logistic equation.

[3] = system: spinal cord white matter / myelin after compression injury; experiment: Spinal cord histology and myelin quantification after compression injury; type: in vivo, mouse
Method: A section of spine between T10 and L1 was removed under anesthesia. The tissue was placed in 4.0% paraformaldehyde in phosphate buffered saline, pH 7.4, and rocked for 4 hours. The disc body, lamina, pedicle, spinous and transverse processes surrounding the cord were carefully removed and the cord trimmed to center the injured area in a 10 mm segment. After incubation at 4° C. overnight, tissues were washed in Dulbecco's phosphate buffered saline (PBS, pH 7.4) twice for 10 minutes, and transferred to cassettes in 70% ethanol for paraffin embedding. Five μm sections were collected at 500 μm intervals using a Leica RM2030 Rotary Microtome. Sections derived from the center of the 2 mm compression zone were stained with hematoxylin & eosin (HE) and eriochrome cyanine (EC) as described below. Slides were examined using an Olympus BX51 light microscope and photographed using an Olympus DP70 digital camera (4080×3072 pixels) with DP70-BSW-V1.2 Capture & Archiving Software.
Hematoxylin & Eosin (HE) Staining. Sections were deparaffinized at 37° C. twice each for 5 minutes in xylene, 100% ethanol, and 95% ethanol, then once for 5 minutes in 70% ethanol and twice for 5 minutes in dH2O. Slides were stained in filtered hematoxylin for 60 seconds and washed in tap water for 3 minutes, stained in Eosin Y for 30 seconds and washed in tap water for 3 minutes. After the slide was dehydrated to xylene, a coverslip was applied.
Eriochrome Cyanine (EC) Staining. The protocol for staining myelin was obtained from the NINDS Spinal Cord Injury Training Course 2004 (The Ohio State University, Columbus, Ohio) and used with minor modifications. […]
Spinal Cord Cross Sectional Area and Myelin Quantification. Total cross-sectional area was measured to determine the extent of spinal cord atrophy, Cross-sectional area stained with EC was calculated by image analysis to evaluate damage of the sagittal myelinated tracts. […] The loss in white matter of each sample was calculated as % of total area stained in respective areas of control samples.

[4] = system: spinal cord compression injury in bone marrow chimera mice; experiment: Spinal cord compression injury in bone marrow chimera and A2AR KO mice, locomotor assessment; type: in vivo, mouse
Method: Female mice 7-9 weeks of age were irradiated twice with 600 Rads separated by 4 hours. Bone marrow donor mice 12 weeks of age were sacrificed by a lethal injection of sodium pentobarbital. Bone marrow cells were harvested from femurs and tibia by flushing with RPMI-1640 medium (Invitrogen Corporation, Grand Island, N.Y.) in the presence of 10% heat-inhibited fetal bovine serum (FBS). Connective tissue and debris were carefully removed by washing and centrifuging. Red blood cells were lysed by 1× ZAP-OGLOBIN® II lytic Reagent (Beckman Coulter, Miami, Fla.). Recipient mice were anesthetized intraperitoneally with a mixture of 100 mg/ml ketamine and 20 mg/ml xylazine in saline solution. An aliquot of approximately 2×10^6 cells in 200 μl RPMI-1640 with 10% FBS was injected intravenously through left or right jugular vein. BMT mice were used for experiments after 6 weeks. We have previously shown that this procedure results in efficient repopulation of BMDC cells to irradiated mice (Day et al., 2005).

[5] = biological target: recombinant human A2A receptors (Homo sapiens, UniProt P29274); details: recombinant human receptors (Rieger et al., 2001); cited from earlier work
[6] = system: spinal cord compression injury, locomotor function; experiment: Spinal cord compression injury, locomotor assessment (mBBB); details: for locomotor function (mBBB score) after spinal cord compression: wild type mice, IP from 5 min before compression, twice daily 4 days, days 1-42, FIG. 2
Method: Briefly, mice were anesthetized with a mixture of ketamine and xylazine and placed on a heating pad in a stereotaxic apparatus. A laminectomy was performed at T12 and two adjustable forceps were applied to the vertebra between T11 to T13 to stabilize the spinal cord. Ischemic injury was produced by gently placing a 15 gram compression rod with 1 mm×2 mm rectangular surface onto the intact durra for 5 minutes. […] Injured mice were assessed on post-SCI days 1, 4, 7, 14, 28, and 42. Sham animals received a laminectomy without spinal cord compression. Following SCI, bladders were expressed twice daily until return of normal bladder function.
Animals that were able to walk and scored greater than 14 based on rat BBB scoring criteria were further evaluated based on their ability to traverse steel bars without slipping. Mice were placed on bars 500 mm in length and 3 mm in thickness with decreasing widths: 20 mm (score 16), 15 mm (score 17), 10 mm (score 18), 7 mm (score 19), and 5 mm (score 20). […] Scores obtained from left and right hind limbs were averaged.
Statistical Analysis: Statistical analyses were conducted using SAS version 9.1 (SAS Institute Inc, Cary, N.C.). A mixed model (SAS Proc Mixed) was applied to determine the effect of drug treatment over time. Both the experimental condition (mouse genotype and/or drug) and the day were set as categorical variables. An autoregressive correlation structure was assumed for repeated measures in the entire study.

[7] = system: contusive spinal cord injury, locomotor function; experiment: Contusive spinal cord injury, locomotor assessment (mouse BBB); details: FIG. 13; for protection from contusive injury in Rag1 KO mice compared to Rag1 KO vehicle: Rag1 KO mice lacking mature lymphocytes
Excerpt: Female C57BL/6 wild type and Rag-1 KO mice lacking mature lymphocytes between 6-18 weeks of age were purchased from Jackson Laboratory (Bar Harbor, Me.). Adenosine 2A receptor gene deletion (A2AAR −/−, A2AAR knockout) mice were age-matched to their wild types with same genomic background (C57BL/6). Food and water were provided ad libitum before and after experiments. During the experiment period, animals were housed in a pathogen-free isolation barrier region with chip bedding.
Animals were subjected to comtusive spinal cord injury protocol. Briefly, mice were anesthetized with a mixture of ketamine and xylazine and placed on a heating pad in a stereotaxic apparatus. A laminectomy was performed at T12 and two adjustable forceps were applied to the vertebra between T11 to T13 to stabilize the spinal cord. Contusive spinal cord injury (SCI) was produced with an IH device (PSI, Lexington, Ky.) at a defined force from 30 to 100 Kdynes with a dwell time of 30 msec or 60 sec. […] Injured mice were assessed on days 1, 2, 3, 4, 7, 10, 14, 21, 28, 35, and 42 after injury. Sham animals (n=10) received a laminectomy without spinal cord compression. Following SCI, bladders were expressed twice daily until return of normal reflexive bladder function.
Statistical tests were performed using GraphPad™ Prism version 5 software (GraphPad Software, Inc., San Diego, Calif.). Differences in locomotor scores between groups was analyzed by two-way analysis of variance (ANOVA) employing Bonferroni post-tests for repeated measure comparisons. A P value <0.05 was considered to be significant.

T2 sequence (Q60613 whole entry): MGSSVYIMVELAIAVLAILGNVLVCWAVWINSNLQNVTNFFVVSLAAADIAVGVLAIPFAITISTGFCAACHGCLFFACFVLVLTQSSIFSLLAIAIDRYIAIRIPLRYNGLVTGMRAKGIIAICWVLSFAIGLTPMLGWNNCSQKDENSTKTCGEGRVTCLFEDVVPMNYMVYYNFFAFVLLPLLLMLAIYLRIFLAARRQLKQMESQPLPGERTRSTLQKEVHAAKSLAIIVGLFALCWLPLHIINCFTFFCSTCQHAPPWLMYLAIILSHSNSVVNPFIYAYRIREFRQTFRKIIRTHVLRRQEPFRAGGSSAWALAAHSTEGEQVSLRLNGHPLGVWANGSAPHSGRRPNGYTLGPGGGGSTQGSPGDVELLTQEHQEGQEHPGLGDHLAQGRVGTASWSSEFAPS
Chain of recombinant human A2A receptors (P29274 whole entry): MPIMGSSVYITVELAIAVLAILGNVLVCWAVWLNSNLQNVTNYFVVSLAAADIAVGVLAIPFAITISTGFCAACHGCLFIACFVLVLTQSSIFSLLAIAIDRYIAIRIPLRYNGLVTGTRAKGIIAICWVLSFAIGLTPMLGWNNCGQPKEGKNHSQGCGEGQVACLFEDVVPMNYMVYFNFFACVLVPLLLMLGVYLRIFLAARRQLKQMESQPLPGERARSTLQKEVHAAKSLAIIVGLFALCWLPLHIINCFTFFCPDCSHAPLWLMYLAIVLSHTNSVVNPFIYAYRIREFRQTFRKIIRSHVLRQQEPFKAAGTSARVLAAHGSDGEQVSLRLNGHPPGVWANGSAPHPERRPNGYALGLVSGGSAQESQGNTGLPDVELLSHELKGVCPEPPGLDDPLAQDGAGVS

Compound: CCNC(=O)[C@H]1O[C@@H](n2cnc3c(N)nc(NCCc4ccc(CCC(=O)O)cc4)nc32)[C@H](O)[C@@H]1O [CGS21680, 2-[4-(2-carboxyethyl)phenethylamino]-5′-N-ethylcarboxamido-adenosine, reference compound]
Ki [1]: 160 ± 20 nM

Compound: COC(=O)N1CCC(CC#Cc2nc(N)c3ncn(C4OC(C(=O)NC5CC5)C(O)C4O)c3n2)CC1 (stereo not drawn) [ATL313, 4-{3-[6-amino-9-(5-cyclopropylcarbamoyl-3,4-dihydroxy-tetrahydro-furan-2-yl)-9H-purin-2-yl]-prop-2-ynyl}-piperidine-1-carboxylic acid methyl ester]
selectivity for the mouse A2A over the A3 receptor [2]: 12 fold
Ki [2]: 1.58 ± 0.48 nM
A3/A2A [2]: 12.2
Ki [1]: 19.3 ± 3.3 nM
morphological manifestations of long-term spinal cord injury (H&E, EC) ([3]; 6 nmol/kg, day 42, FIG. 3): substantially reversed
spared myelin (EC-stained area, normalized to sham/uninjured) ([3]; 6 nmol/kg, day 42 after compression, vehicle 61.0%±3.6%): 81.9±0.9%
average ratio of spinal cord white area (injured/sham) ([3]; day 42, N=3-4, P<0.05, vehicle 61.3±3.6): 81.9±0.9
protection of locomotor function in mice lacking A2ARs on BMDC cells ([4]; KO/WT chimera or global A2AR KO, FIGS. 5B, 6): not KO/WT chimera; also recorded: not protected; also recorded: completely absent
protection of locomotor function in WT/KO chimera ([4]; WT marrow into A2AR KO recipients, FIGS. 5C, 6, 7): greatest protection
protection of locomotor function in mice with A2ARs on BMDC cells ([4]; WT, WT/WT and WT/KO mice, FIGS. 5, 6): protects WT/WT; also recorded: protected
affinity and selectivity for human A2A receptor over other adenosine receptor subtypes [5]: highly selective
protection from spinal cord compression injury (mBBB) ([6]; 2 nmol/kg IP, FIG. 2A): no significant protection
protection from compression injury with delayed treatment ([6]; 3 nmol/kg IP, delay 0, 5 or 20 min after SCI, two-way ANOVA, FIG. 9): significant
locomotor protection by agonist combined with antagonist ([6]; 6 nmol/kg ATL313 with equimolar ZM241385, FIG. 2D): Early blockade; also recorded: completely blocked
protection when treatment starts just after compression (onset of reperfusion) ([6]; 6 nmol/kg IP 10-15 seconds after terminating compression, compared with start before compression, FIG. 8): reduces locomotor dysfunction; also recorded: equal protection; also recorded: same reduction in SCI
mBBB score ([6]; 6 nmol/kg, day 42 after compression, same animals as myelin analysis, vehicle 5.0±1.4, FIG. 4): 11.3±0.8
optimal dose to reduce SCI (mBBB locomotor score) ([6]; IP twice daily for 4 days during and following compression, FIG. 2A): 6 nmol/kg
reversal of protection by delay of administration ([6]; delay 20 minutes, FIG. 9 legend): partially
protection from spinal cord compression injury (mBBB) ([6]; dose increased from 6 to 20 nmol/kg IP, FIG. 2A): does not produce additional protection
locomotor function (mBBB score) after spinal cord compression ([6]; 6 nmol/kg): significant and sustained increase; also recorded: improved locomotor function at all time points
protection from contusive injury in Rag1 KO mice compared to Rag1 KO vehicle [7]: no evidence of additional protection

Compound: CCNC(=O)C1OC(n2cnc3c(N)nc(C#CCC4CCN(C(=O)OCC(C)C)CC4)nc32)C(O)C1O (stereo not drawn) [ATL210, 4-{3-[6-amino-9-(5-ethylcarbamoyl-3,4-dihydroxy-tetrahydro-furan-2-yl)-9H-purin-2-yl]-prop-2-ynyl}-piperidine-1-carboxylic acid isobutyl ester]
Ki [2]: 1.04 ± 0.26 nM
A3/A2A [2]: 5.2
Ki [1]: 5.4 ± 0.7 nM

Compound: Nc1nc(NCCc2ccc(O)cc2)nc2nc(-c3ccco3)nn12 [ZM241385, 4-(2-[7-Amino-2-[2-furyl][1,2,4]triazolo[2,3-a][1,3,5]triazin-5-yl-amino]ethyl)phenol, reference compound]
Ki [1]: 16100 nM
reduction of compressive injury with delayed antagonist treatment ([6]; 6 nol/kg IP twice daily for 4 days after delay of 1, 3, 5 or 7 days, FIG. 10): Protection is maintained; also recorded: significant compared to vehicle for all delay periods
locomotor function (mBBB score) after spinal cord compression ([6]; 6 nmol/kg): improvement in locomotor function that was similar to the effect of the agonist
protection from contusive injury in Rag1 KO mice compared to Rag1 KO vehicle [7]: did not significantly improve protection
protection from contusive injury in Rag1 KO mice compared to vehicle ([7]; Rag1 KO mice, compared to vehicle controls, P=0.0015): significant protection

The next compounds have a lower Ki [1] than those just listed; values first:

Ki [1]: 3.3 ± 2 nM
Compound: CCNC(=O)C1OC(n2cnc3c(N)nc(C#CCC4CCC(C(=O)OC)CC4)nc32)C(O)C1O (stereo not drawn) [ATL146e, 4-{3-[6-Amino-9-(5-ethylcarbamoyl-3,4-dihydroxy-tetrahydro-furan-2-yl)-9H-purin-2-yl]-prop-2-ynyl}cyclo-hexanecarboxylic acid methyl ester]

Ki [2]: 1.5 ± 0.55 nM
Ki [1]: 3.7 ± 0.4 nM
Compound: CCNC(=O)[C@H]1O[C@@H](n2cnc3c(N)nc(C#CCC4CCN(C(=O)OC)CC4)nc32)[C@H](O)[C@@H]1O [ATL202, 4-{3-[6-amino-9-(5-ethyl-carbamoyl-3,4-dihydroxy-tetrahydro-furan-2-yl)-9H-purin-2-yl]-prop-2-ynyl}-piperidine-1-carboxylic acid methyl ester]
